Source: patent EP0974593A1, “Artemisinin derivatives as antiparasitic agents” (The Hong Kong University of Science & Technology, priority 1998, dated 2000)
Values after ≈ are worked out from the molar mass of the structure shown. Where two headings read alike, the source gives them in different places.

Tests used:
[1] = tested on: Plasmodium Falciparum W2 strain (chloroquine resistant); test: In vitro activity against Plasmodium falciparum, 3H-hypoxanthine incorporation assay, W2 strain; format: cell-based; details: W2, 66 h; for IC50 / IC90: Plasmodium falciparum
Excerpt: (§1) (a) InVitro Activity against Plasmodium Falciparum
(§2) Two parasite strains - W2 resistant to chloroquine, and D6 sensitive to chloroquine but […] were used. In Table I below, the best compounds should show no cross resistance between the two strains.
(§3) The assay relies on incorporation of radiolabelled hypoxanthine by the parasite and inhibition of incorporation is attributed to activity of known or candidate antimalarial drugs. For each assay, proven antimalarials such as chloroquine, mefloquine, quinine, artemisinin and pyrimethamine were used as controls. The incubation period was 66 hours, and the starting parasitemia was 0.2% with 1% hematocrit. The medium was an RPMI-1640 culture with no folate or p-aminobenzoic acid. Albumax rather than 10% normal heat inactivated human plasma was used as, with Albumax, less protein binding is observed, and compounds elicit slightly higher activities in this model. If a compound was submitted with no prior knowledge of activity, it was dissolved directly in dimethyl sulphoxide (DMSO), and diluted 400 fold with complete culture medium. […]. These dilutions were performed automatically by a Biomek 1000 Liquid Handling System in 96-well microtiter plates. The diluted drugs were then transferred to test plates, 200 µL of parasitized erythrocytes were added, and incubated at 37°C in a controlled environment of 5% CO2, 5% O2 and 90% N2. After […], 25 µL of ^3H-hypoxanthine was added, and the plates incubated for an additional 24 hours. After 66 hours, the plates were frozen at -70°C to lyse the red cells, and then thawed and harvested onto glass fiber filter mats in a 96-well harvester. The filter mats were then counted in a scintillation counter. For each drug, the concentration response profile was determined and 50% and 90% inhibitory concentrations (IC50, IC90 […]) were determined by a non-linear logistic dose response analysis program.
(§4) A prescreen format can be used wherein a 3-dilution assay may be used to determine activity at high medium or low concentrations. […]. These were performed in duplicate on a 96-well format plate with 14 test compounds and one known (standard) compound per plate. The system was automated with a Biomek diluter for mixing and diluting the drugs, and adding drugs and parasites to a test plate.
(§5) In the prescreen format, if the ANALYSIS FIELD (AF) has a "<", then the compound was "very active" and the IC values are most likely to be below the last dilution value (in nanograms/ml), which is listed next to AF. In most cases, these compounds were run again at lower starting concentration to determine the true IC value. If the AF has a ">", then the IC value is greater than the prescreen dilution value; thus "AF>250" means that the IC value is greater than 250 ng ml^-1 and no further screening is carried out. In such cases, values of 0.00 are entered for IC values.

[2] = tested on: Plasmodium Falciparum D6 strain (chloroquine sensitive); test: In vitro activity against Plasmodium falciparum, 3H-hypoxanthine incorporation assay, D6 strain; format: cell-based; details: D6, 66 h; for IC50 / IC90: Plasmodium falciparum; for IC50: read-out: In vitro activity: IC50; for IC90: read-out: In vitro activity: IC90
Excerpt: as §1, §2, §3, §4, §5

[3] = read-out: In vitro activity: IC50, W2 strain (chloroquine resistant), 66 hours incubation, Albumax medium
[4] = read-out: In vitro activity: IC90, W2 strain (chloroquine resistant), 66 hours incubation, Albumax medium
[5] = D6 strain (chloroquine sensitive, resistant to mefloquine), 66 hours incubation, Albumax medium

IC50 [1, 3] [ng/mL] | IC90 [1, 4] [ng/mL] | IC50 [2, 5] [ng/mL] | IC90 [2, 5] [ng/mL] | SMILES | IC50 ([1]; read-out: In vitro activity: IC50) [ng/mL] | IC90 ([1]; read-out: In vitro activity: IC90) [ng/mL] | IC50 [2] [ng/mL] | IC90 [2] [ng/mL] | In vitro activity: (IC10) [1] [ng/mL] | In vitro activity: (IC10) [2] [ng/mL]
0.58 (≈ 1.49 nM) | 0.95 (≈ 2.44 nM) | 0.79 (≈ 2.03 nM) | 1.26 (≈ 3.24 nM) | C[C@@H]1CC[C@H]2[C@@H](C)C(=O)N(Cc3cccc(F)c3)[C@@H]3O[C@@]4(C)CC[C@@H]1[C@@]23OO4 [Example 5] | – | – | – | – | – | –
3.8 (≈ 10.2 nM) | 4.68 (≈ 12.6 nM) | 3.62 (≈ 9.74 nM) | 6.68 (≈ 18 nM) | C[C@@H]1CC[C@H]2[C@@H](C)C(=O)N(Cc3ccccc3)[C@@H]3O[C@@]4(C)CC[C@@H]1[C@@]23OO4 [Example 6] | – | – | – | – | – | –
– | – | – | – | C[C@@H]1CC[C@H]2[C@@H](C)C(=O)N[C@@H]3O[C@@]4(C)CC[C@@H]1[C@]32OO4 [Example 1, 11-azaartemisinin] | 1.73 (≈ 6.15 nM) | 2.24 (≈ 7.96 nM) | 2.6 (≈ 9.24 nM) | 3.6 (≈ 12.8 nM) | – | –
0.775 (≈ 1.99 nM) | 0.975 (≈ 2.5 nM) | 0.64 (≈ 1.64 nM) | 0.99 (≈ 2.54 nM) | C[C@@H]1CC[C@H]2[C@@H](C)C(=O)N(Cc3ccccc3F)[C@@H]3O[C@@]4(C)CC[C@@H]1[C@@]23OO4 [Example 2, 11-aza-N-(2-fluorobenzyl)artemisinin] | – | – | – | – | – | –
– | – | – | – | C[C@@H]1CC[C@H]2[C@@H](C)C(=O)N(Cc3ccc(F)cc3)[C@@H]3O[C@@]4(C)CC[C@@H]1[C@@]23OO4 [Example 4] | – | – | – | – | 0.31 | 1.13
